Tested on: Listeria monocytogenes
Experiment: Bacterial titer / log attenuation of Listeria after compound 1 treatment
Assay type: cell-based
Details: e.g. at 1 μM
Protocol: A procedure was done similarly to Example 1 only using the compound β-alanine, N-(acridin-9-yl), 2-[bis(2-chloroethyl)amino]ethyl ester (Compound 1, ChemSyn, Harrisonville, Mo., see U.S. Pat. No. 6,093,725). The Listeria strains used were DP-L4056 and DP-L4017. Compound 1 (1 mM in acidic BBS (blood bank saline), 135 μl of 1.48 M H3PO4 per 100 mL BBS) was added to 5 mL of bacteria at 1×10^8 CFU/mL to concentrations of 0, 0.5, 1, 2, 5, and 10 μM and the samples incubated for 2 hours at room temperature. After the incubation, the bacterial titer and antigen presentation was assessed as per Example 1.

O=C(CCNc1c2ccccc2nc2ccccc12)OCCN(CCCl)CCCl [compound 1, β-alanine, N-(acridin-9-yl), 2-[bis(2-chloroethyl)amino]ethyl ester]
attenuation of proliferation with sufficient antigen presentation: effective

— patent publication US7695725B2, “Modified free-living microbes, vaccine compositions and methods of use thereof” (Aduro Biotech, priority 2003, dated 2010)
